Assay [1] concerns the target Epidermal growth factor receptor (Homo sapiens) (UniProt P00533). In words: Induction of EGFR degradation in human MDA-MB-231 cells assessed as suppression of EGFR expression at 0.05 to 0.6 uM by Western blot analysis. Format: cell-based. Background: Immunoblotting shows a protein as a band on a membrane.
The target of assay [2] is Hepatocyte growth factor receptor (Homo sapiens) (UniProt P08581). In words: Induction of c-MET degradation in human MDA-MB-231 cells assessed as suppression of c-MET expression at 0.05 to 0.6 uM by Western blot analysis. The assay is classed as cell-based.

Molecules are shown by their SMILES. Calls of active or inactive are those of the source. The rule behind the calls is not given here.

Chain of Epidermal growth factor receptor (Homo sapiens) (P00533 whole entry): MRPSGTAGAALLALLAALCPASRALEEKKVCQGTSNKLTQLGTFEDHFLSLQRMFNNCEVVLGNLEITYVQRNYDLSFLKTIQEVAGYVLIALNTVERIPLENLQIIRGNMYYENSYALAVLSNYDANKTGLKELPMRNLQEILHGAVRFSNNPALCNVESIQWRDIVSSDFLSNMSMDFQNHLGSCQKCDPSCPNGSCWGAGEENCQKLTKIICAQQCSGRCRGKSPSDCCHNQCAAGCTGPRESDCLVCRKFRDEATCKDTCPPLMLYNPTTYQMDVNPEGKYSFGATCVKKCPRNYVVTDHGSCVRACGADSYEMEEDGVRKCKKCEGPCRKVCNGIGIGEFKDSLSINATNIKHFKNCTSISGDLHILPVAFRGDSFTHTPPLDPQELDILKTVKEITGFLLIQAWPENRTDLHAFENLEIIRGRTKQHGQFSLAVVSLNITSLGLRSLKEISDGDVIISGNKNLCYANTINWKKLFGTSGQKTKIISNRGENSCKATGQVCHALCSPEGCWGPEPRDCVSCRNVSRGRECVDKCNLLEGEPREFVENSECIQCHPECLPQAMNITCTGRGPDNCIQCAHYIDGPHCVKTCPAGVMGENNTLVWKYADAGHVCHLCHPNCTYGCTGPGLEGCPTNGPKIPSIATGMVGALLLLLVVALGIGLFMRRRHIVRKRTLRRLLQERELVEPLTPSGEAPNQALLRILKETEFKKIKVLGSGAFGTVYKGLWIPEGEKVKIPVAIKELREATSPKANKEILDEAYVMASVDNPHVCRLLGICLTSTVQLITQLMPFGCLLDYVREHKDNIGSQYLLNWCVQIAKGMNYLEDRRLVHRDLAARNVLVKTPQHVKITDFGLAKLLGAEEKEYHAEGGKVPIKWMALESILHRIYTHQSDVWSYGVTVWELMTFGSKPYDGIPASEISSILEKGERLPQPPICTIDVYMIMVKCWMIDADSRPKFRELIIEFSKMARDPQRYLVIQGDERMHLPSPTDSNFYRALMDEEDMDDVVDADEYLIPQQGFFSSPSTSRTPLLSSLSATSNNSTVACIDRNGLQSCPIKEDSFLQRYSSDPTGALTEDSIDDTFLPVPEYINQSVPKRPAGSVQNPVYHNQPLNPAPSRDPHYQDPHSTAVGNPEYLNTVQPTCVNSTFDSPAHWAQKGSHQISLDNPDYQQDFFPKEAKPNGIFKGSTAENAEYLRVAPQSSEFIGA
Chain of Hepatocyte growth factor receptor (Homo sapiens) (P08581 whole entry): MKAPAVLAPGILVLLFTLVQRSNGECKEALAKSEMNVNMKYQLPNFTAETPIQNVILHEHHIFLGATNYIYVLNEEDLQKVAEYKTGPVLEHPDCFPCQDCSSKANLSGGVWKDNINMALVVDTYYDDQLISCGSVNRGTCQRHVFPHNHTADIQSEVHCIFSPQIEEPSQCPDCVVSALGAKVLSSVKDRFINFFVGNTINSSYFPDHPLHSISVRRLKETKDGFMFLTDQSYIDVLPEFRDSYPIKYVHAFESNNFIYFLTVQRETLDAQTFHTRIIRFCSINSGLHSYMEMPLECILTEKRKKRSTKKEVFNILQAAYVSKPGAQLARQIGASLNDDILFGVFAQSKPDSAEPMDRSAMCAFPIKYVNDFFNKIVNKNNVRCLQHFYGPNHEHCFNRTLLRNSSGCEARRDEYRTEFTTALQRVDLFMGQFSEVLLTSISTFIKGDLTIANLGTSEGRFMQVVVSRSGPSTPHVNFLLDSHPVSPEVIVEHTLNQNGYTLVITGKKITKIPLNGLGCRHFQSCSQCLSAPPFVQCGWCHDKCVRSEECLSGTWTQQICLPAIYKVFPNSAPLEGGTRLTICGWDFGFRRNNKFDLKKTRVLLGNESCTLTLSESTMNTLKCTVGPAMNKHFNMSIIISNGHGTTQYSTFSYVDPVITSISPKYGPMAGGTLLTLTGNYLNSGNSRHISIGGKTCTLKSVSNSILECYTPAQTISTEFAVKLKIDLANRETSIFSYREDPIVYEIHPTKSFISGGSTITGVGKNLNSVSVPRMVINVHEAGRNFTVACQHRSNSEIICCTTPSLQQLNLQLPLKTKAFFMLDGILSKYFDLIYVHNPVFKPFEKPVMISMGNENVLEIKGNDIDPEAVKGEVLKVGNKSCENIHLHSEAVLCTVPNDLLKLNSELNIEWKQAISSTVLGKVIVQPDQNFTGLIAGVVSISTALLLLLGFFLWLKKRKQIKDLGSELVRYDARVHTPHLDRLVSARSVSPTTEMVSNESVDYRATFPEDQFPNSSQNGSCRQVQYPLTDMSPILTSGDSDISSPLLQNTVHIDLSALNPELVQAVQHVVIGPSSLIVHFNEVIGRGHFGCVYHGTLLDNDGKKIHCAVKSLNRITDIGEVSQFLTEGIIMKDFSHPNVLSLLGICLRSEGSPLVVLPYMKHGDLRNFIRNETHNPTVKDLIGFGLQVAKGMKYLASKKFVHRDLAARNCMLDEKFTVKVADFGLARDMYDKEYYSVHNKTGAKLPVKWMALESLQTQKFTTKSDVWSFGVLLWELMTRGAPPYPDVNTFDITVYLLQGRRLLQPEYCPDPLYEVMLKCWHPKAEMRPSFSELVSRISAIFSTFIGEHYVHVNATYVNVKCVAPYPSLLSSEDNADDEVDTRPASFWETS

On to `O=C(Nc1cccc(-c2nc(-c3ccc(NC(=O)c4cccnc4)cc3Cl)no2)c1)Nc1ccc(NC(=O)C2CC2)c(C(F)(F)F)c1`, for which the result in assay [1] and in assay [2] was Active.

The values are drawn from ChEMBL document CHEMBL4342507, “Targeting YAP Degradation by a Novel 1,2,4-Oxadiazole Derivative via Restoration of the Function of the Hippo Pathway” (ACS Med Chem Lett, 2020).
